{"source": "patent US20050032863A1", "about": "“Method of treating or preventing central nervous system disorders with compounds having selectivity for the alpha 3 subunit of the benzodiazepine receptor” (priority 2003, published 2005)", "key": {"[1]": {"test_system": "male Wistar rats", "experiment": "Rat forced swim test", "format": "in vivo", "method": "All animals were treated with verum or vehicle three times: shortly after the habituation session (23 h), 5 and 1 h prior to testing. All drugs were administered orally with an application volume of 1 ml/kg.\nThe animals were tested in a glass tank (23×30 cm, height 40 cm) filled to a depth of 28 cm with water at 22° C. (the animals could not touch the bottom). The glass tank was illuminated indirectly and was surrounded by dark brown shading walls (distance from the tank 20 cm) to prevent the view on the experimenter. The experiments were performed between 14:00 and 17:00 hours and the method was in general performed as described (Porsolt et al., 1979; Lucki, 1997).\nOn the first experimental day, rats were gently placed in the water for a 15 min period of habituation. On removal from the water, they were placed in a standard plexiglass box, the floor covered with paper towels, under an infrared heater for 30 min to dry. The next day, they were once more placed gently in the glass tank and observed for 5 min. The behaviour of the animals was video-taped.\nFollowing the experiment the video tapes were analysed manually and the duration of the following behaviours was recorded: Immobility: floating and making only those movements necessary to keep the nose above the water. […] Climbing: when rats strongly move their forepaws in and out of the water, usually against the walls."}, "[2]": {"test_system": "extracellular serotonin in the striatum of rats", "experiment": "Microdialysis in the striatum of rats, reversal by flumazenil (Example 6)", "format": "in vivo, rat", "method": "The day before the experiment, male rats were anaesthetised with chloral hydrate (3.6%, 1 ml/100 g i.p.) and placed in a stereotaxic frame to implant a microdialysis guide cannula (CMA/12, Carnegie Medicine, Sweden). Scalp was incised in the median anterior-posterior direction between lambda and bregma and a small hole was drilled into the skull. The stereotaxic coordinates were AP=+1.0 mm, L=−3.0 mm from bregma and 1.5 mm from the skull surface for the striatum according to the atlas of Paxinos and Watson, (1986) (1). Dental cement (Sinfony(2)) was used to fix the guide cannula and anchor screws to the cranium. During the surgery rectal temperature was maintained at 37° C. using a heating blanket.\nThe day before the experiment the microdialysis probe (CMA/12, membrane length 4 mm, Carnegie Medicin, Sweden) was inserted into the striatum through the guide cannula. […] Microvials were stored in a fraction collector (CMA/170) at a temperature of 8° C. until analysed. […]\nDialysates were directly analysed by reverse-phase high-performance liquid chromatography with electrochemical detection (HPLC-EC). […]\nTherefore data of each animal were expressed as percentages. Data from dialysates before administering the substances were averaged, and the mean set as 100%; all individual values were calculated accordingly."}, "[3]": {"test_system": "female Wistar rats, MK-801-induced stereotypies, hyperactivity and ataxia", "experiment": "MK-801-induced psychosis-related behaviour and reversibility by flumazenil (Example 7)", "format": "in vivo, rat", "settings": "for effect on other stereotypies when flumazenil is added: 30 mg/kg p.o. + flumazenil 5 mg/kg", "method": "Apart from the haloperidol rats which received haloperidol 30 minutes and MK-801 10 minutes prior to the test, the other test groups received haloperidol, ELB139 or vehicle 60 minutes prior to test, saline or flumazenil 20 minutes prior to test and MK-801 10 minutes prior to test.\nThe behaviour induced by the NMDA antagonist MK-801 is generally accepted as a rat model of psychosis. MK-801 induces stereotypies, hyperactivity and ataxia in rats after intraperitoneal administration.\nLocomotor activity of the rats is recorded by the MotiTest Apparatus (TSE, Bad Homburg, Germany). The test area consisted of a squared arena (45×45 cm) with protective plexiglass walls (20 cm of height) where rats could freely move. Horizontal movements were recorded by 32 infrared photocells arranged along the bottom of each wall of the arena. Vertical movements (rearings) were recorded by a horizontal row of 32 infrared photocells 12 cm above the floor. The following parameters were measured by the computer program “ActiMot” (TSE, Bad Homburg, Germany): • 1. active time [s] • 2. total distance travelled [m]\nStereotypies, divided into stereotyped sniffing and other stereotypies, and ataxia are scored by the experimenter every five minutes for one hour (12 intervals) according to the method described by Andiné et al. (1999). The scores of the 12 intervals are added for each parameter.\nThe day of experiment the female rats are placed in the laboratory and receive the test compound, the reference substance or vehicle at the appropriate time prior to test. […]\nAt the beginning of the test the rats are placed in the centre of the squared arena of the MotiTest apparatus. Behaviour of the rats is recorded for one hour. After each run animals are removed and the boxes thoroughly cleaned and dried."}, "[4]": {"settings": "10 and 30 mg/kg p.o., 23, 5 and 1 h prior to testing"}, "[5]": {"settings": "30 mg/kg p.o. + flumazenil 5 mg/kg i.p., second trial"}}, "data": [{"smiles": "O=C1N=C(N2CCCCC2)CN1c1ccc(Cl)cc1", "note": "[ELB139, 1-(4-chlorophenyl)-4-piperidinoimidazolin-2-one]", "values": [{"measurement": "activity following the return to the homecage (subjective observation)", "setting": "[1]; 30 mg/kg p.o.", "result": "moderate hypoactivity"}, {"measurement": "climbing time", "setting": "[1]; 30 mg/kg p.o.", "result": "slight but not significant decrease"}, {"measurement": "duration of swimming", "setting": "[1]; 30 mg/kg p.o., 23, 5 and 1 h prior to testing", "result": "increased"}, {"measurement": "tolerability", "setting": "[1]; 10 and 30 mg/kg p.o.", "result": "well tolerated"}, {"measurement": "climbing behaviour", "setting": "[1]; [4]", "result": "not changed"}, {"measurement": "time spent immobile", "setting": "[1]; [4]", "result": "had no effect"}, {"measurement": "extracellular serotonin in the striatum compared to mean basal level", "setting": "[2]; 30 mg/kg i.p.", "result": "marked increase"}, {"measurement": "increase of extracellular serotonin after flumazenil", "setting": "[2]; ELB139 30 mg/kg i.p., flumazenil 10 mg/kg i.p. 40 minutes later", "result": "not only reversed but serotonin level even decreases below the mean basal level"}, {"measurement": "effect on distance travelled when flumazenil is added", "setting": "[3]; 30 mg/kg p.o. + flumazenil 5 mg/kg i.p., all trials and sum", "result": "significantly reversed"}, {"measurement": "effect on activity when flumazenil is added", "setting": "[3]; 30 mg/kg p.o. + flumazenil 5 mg/kg i.p., both tests and sum", "result": "significantly reversed"}, {"measurement": "effect on stereotyped sniffing when flumazenil is added", "setting": "[3]; 30 mg/kg p.o. + flumazenil 5 mg/kg i.p., first trial and sum of both trials", "result": "significantly reversed"}, {"measurement": "effect on stereotyped sniffing when flumazenil is added", "setting": "[3]; [5]", "result": "distinctly antagonised"}, {"measurement": "reducing effect on ataxia when flumazenil is added", "setting": "[3]; [5]", "result": "reversed"}, {"measurement": "reversing effect of flumazenil on the ataxia effect", "setting": "[3]; 30 mg/kg p.o. + flumazenil 5 mg/kg i.p., sum of both trials", "result": "marginal"}, {"measurement": "effect on other stereotypies when flumazenil is added", "setting": "[3]; first trial", "result": "rather amplified"}, {"measurement": "effect on other stereotypies when flumazenil is added", "setting": "[3]; second trial", "result": "distinctly reversed"}, {"measurement": "effect on other stereotypies when flumazenil is added", "setting": "[3]; sum of both trials", "result": "no change"}, {"measurement": "MK-801-induced increase of the distance travelled, whole time curve", "setting": "[3]; 30 mg/kg p.o., both tests and sum", "result": "significantly reduced"}, {"measurement": "MK-801-induced stereotyped sniffing", "setting": "[3]; 30 mg/kg p.o., discrete trials and sum of both trials", "result": "significantly reversed"}, {"measurement": "MK-801-induced other stereotypies", "setting": "[3]; 30 mg/kg p.o., first trial", "result": "slightly reduced"}, {"measurement": "MK-801-induced ataxia", "setting": "[3]; 30 mg/kg p.o., first trial (November 2003)", "result": "hardly affected"}, {"measurement": "activity induced by MK-801, whole time curve", "setting": "[3]; 30 mg/kg p.o., first trial and sum of both tests", "result": "significantly reduced"}, {"measurement": "activity induced by MK-801, whole time curve", "setting": "[3]; 30 mg/kg p.o., second trial", "result": "distinctly reduced"}, {"measurement": "MK-801-induced ataxia", "setting": "[3]; 30 mg/kg p.o., second trial (January 2004)", "result": "more pronounced but still not significant"}, {"measurement": "MK-801-induced other stereotypies", "setting": "[3]; 30 mg/kg p.o., second trial and sum of both trials", "result": "significantly reversed"}, {"measurement": "MK-801-induced ataxia", "setting": "[3]; 30 mg/kg p.o., sum of both trials", "result": "only a slight reduction"}]}]}
